This experiment deals with metastatic bone pain. Kind of experiment: Multicenter, randomized, active-controlled, double-blind trial of pain (BPI worst/average pain scales). Format: in vivo. Particulars: patients; ibandronic acid 6 mg IV over 15 min on Days 1, 2 and 3, then 50 mg orally daily from Day 22; 24 weeks; compared to placebo treatment. The procedure: A multicenter, randomized, active-controlled, double-blind, parallel groups trial is conducted. Patients are centrally randomized via an interactive voice response system (IVRS) to treatment either with ibandronic acid or zoledronic acid. Study treatment begins within 96 hours of randomization. Treatment continues for 24 weeks. Patients record their pain on the WORST PAIN and the AVERAGE PAIN scales of the BPI, as well as daily analgesic use, on a nightly basis. Patients record the degree to which their pain interferes with normal functioning and any opioid side-effects weekly. WHO Performance Status, quality of life based on the EORTC QLQ-C30 instrument and quality of life based on the FACT-BP, an instrument specifically designed to measure quality of life in patients with bone pain are recorded at Day 8 and Weeks 6, 12, 18 and 24 of the trial. Patients have skeletal surveys performed at Baseline and at Weeks 12 and 24 as part of the monitoring of SREs. Patients randomized to the ibandronic acid arm receive ibandronic acid 6 mg intravenously over 15 minutes on Days 1, 2 and 3 of the trial, followed by ibandronic acid 50 mg orally daily beginning on Day 22 of the study. Patients also receive a placebo infusion every 3-4 weeks, depending on the underlying chemotherapy regimens patients may be receiving. Patients who are not receiving chemotherapy receive placebo infusions every 3 weeks. […]

With `CCCCCN(C)CCC(O)(P(=O)(O)O)P(=O)(O)O` [ibandronate, 3-(N-methyl-N-pentyl)amino-1-hydroxypropane-1,1-diphosphonic acid], the pain scores result is “significantly lower pain scores”.

Source of the values: US20070191315A1, “Method for administering ibandronate” (priority 2006, published 2007).
